In US20170007644A1, “A METHOD OF TREATING NEOPLASIA” (FUWAN PTY LTD, priority 2013, published 2017):

Test system: A549-GFP cells (A549/lung cancer cells)
Test: Proliferation assay (fluorescence intensity) of A549-GFP cells treated with MLPC and/or doxorubicin
Assay type: cell-based, human
Settings: doxorubicin alone 0.8 μM or 4 μM, 72 hours, FIG. 7
Procedure: Single cell suspensions of A549-GFP, A549-LG, and SKOV3-LG were obtained after trypsinization of the monolayer cultures and counted by trypan blue exclusion. In brief, the cells were seeded at various densities of 1000, 2000, 4000, 5000, 6000, and 10.000 cells into black microliter plates (Nunc) and incubated in 200 microliter culture medium for 3 days. Then the supernatant of cell culture were replaced by 100 microliter Dulbecco's Phosphate buffered saline (DPBS). The fluorescence intensity was determined by excitation and emission on fluorescent microplate reader (BMG).
Single cell suspensions of A549-GFP and SKOV3-LG were obtained by trypsinization of the monolayer cultures and counted by trypan blue exclusion. The proliferation of cancer cells, in particular the downregulation of proliferation, was evaluated by individual, simultaneous, two-stage models. MLPC and a chemotherapeutic drug were added simultaneously to A549-GFP and SKOV3-LG cells for 3 days. In a two-stage experiment, in the first stage MLPC were added to A549-GFP and SKOV3-LG cells for 3 days. In the second stage, supernatants of cells were removed and a chemotherapeutic drug was added for 3 days. […] Fluorescence intensities were determined to evaluate the effect on cancer cell proliferation of the various treatments and control.

`COc1cccc2c1C(=O)c1c(O)c3c(c(O)c1C2=O)C[C@@](O)(C(=O)CO)C[C@@H]3O[C@H]1C[C@H](N)[C@H](O)[C@H](C)O1` [doxorubicin] was tested, and the “cancer cell proliferation (relative fluorescence intensity)” value was “significantly reduced cancer cell proliferation”.
